Measurements published in US20210393520A1, “TREATMENT OF GRAM-NEGATIVE FOLLICULITIS OR AN INFLAMMATION THEREOF WITH BESIFLOXACIN” (VYOME THERAPEUTICS LIMITED, priority 2018, published 2021).
Values after ≈ are worked out from the molar mass of the structure shown.

Columns and labels:
P. acnes V3-1 = assay: MIC against bacteria isolated from acne lesions, Table 2; format: cell-based, Propionibacterium acnes; details: Cutibacterium acnes, V31; P. acnes V3-1, isolated from acne lesions; read-out: Minimum Inhibitory Concentration
Method: (§1) MIC of besifloxacin and other antibiotics molecules were determined by micro broth dilution method as per the Clinical and Laboratory Standards Institute (CLSI) guideline. MIC assay is the determinant of the inherent anti-microbial potency of a particular molecule. For preparing inoculum, bacterial strains were cultured in Brain Heart Infusion Agar (BHIA) at 37° C. for 24 hours. […] For bacterial inoculum, bacterial culture turbidity was adjusted to 0.1 OD at 600 nm in UV-Visual spectrophotometer (approximately 1.5×10^8 cells/ml) and further diluted (100 times with sterile BHI broth). Diluted bacterial suspension (100 μl) was added to each well except sterility control wells (column 12 of 96 well plate). Column 11 of 96 well plate was used as growth control and vehicle control. The plates were incubated at 37° C. for 24 h. The MIC of the test compounds were determined by observing the lowest concentration of test compound that prevented the visual bacterial growth.
(§2) Different skin resident bacteria were isolated from acne lesions of moderate to severe acne patients.

[1] = test system: Bacillus megaterium M1-2.; assay: as above; format: cell-based; details: Priestia megaterium, M12., read-out: Minimum Inhibitory Concentration
Method: as §1, §2

[2] = test system: Dermatobacter hominis S11-2; assay: as above; format: cell-based; details: S112; Dermatobacter hominis S11-2, isolated from acne lesions; read-out: Minimum Inhibitory Concentration
Method: as §1, §2

[3] = test system: Enterobacter aerogenes M2-1; assay: as above; format: cell-based; details: Klebsiella aerogenes, M21; Enterobacter aerogenes M2-1, isolated from acne lesions; read-out: Minimum Inhibitory Concentration
Method: as §1, §2

K. pneumoniae S6-1 = assay: as above; format: cell-based; details: Klebsiella pneumoniae, S61; K. pneumoniae S6-1, isolated from acne lesions; read-out: Minimum Inhibitory Concentration
Method: as §1, §2

Kocuria sp. S18-1 = assay: as above; format: cell-based; details: SP.S181; Kocuria sp. S18-1, isolated from acne lesions; read-out: Minimum Inhibitory Concentration
Method: as §1, §2

Microbacterium sp. S20-2 = assay: as above; format: cell-based; details: Microbacterium sp. S20-2, isolated from acne lesions
Method: as §1, §2

P. avidum S3-1 = assay: as above; format: cell-based; details: Cutibacterium avidum, S31; P. avidum S3-1, isolated from acne lesions; read-out: Minimum Inhibitory Concentration
Method: as §1, §2

S. epidermidis S1-1 = assay: as above; format: cell-based; details: Staphylococcus epidermidis, S11; S. epidermidis S1-1, isolated from acne lesions; read-out: Minimum Inhibitory Concentration
Method: as §1, §2

[4] = test system: Staphylococcus haemolyticus M1-1; assay: as above; format: cell-based; details: M11; Staphylococcus haemolyticus M1-1, isolated from acne lesions; read-out: Minimum Inhibitory Concentration
Method: as §1, §2

Blastococcus sp. S21A-2 = format: cell-based; details: Blastococcus sp. S21A-2, isolated from acne lesions
Method: as §1, §2

Acinetobacter sp. 488 = assay: MIC, micro broth dilution in Muller Hinton broth (CLSI), Table 1B; format: cell-based; details: read-out: Minimum Inhibitory Concentration
Method: (§3) Besifloxacin HCL was tested against ampicillin and cefotaxime (3rd generation cephalosporin) susceptible and resistant gram-negative bacterial strains involved in GNF (gram negative folliculitis) by broth dilution method as per the Clinical & Laboratory Standards Institutes (CLSI) guidelines. MIC assay was performed in 96 well plates by micro broth dilution method, in 96 well plates, all the wells were added with 100 μl of sterilized Muller Hinton broth No: 2 cation broth (HiMedia, India). The initial stock of test compounds (1 mg/ml) were prepared in dimethyl sulfoxide (DMSO) and further dilutions were made in culture broth to get the desirable concentration. Then 100 μl of broth containing test compounds were initially added to the first column's wells and then serial dilution was performed up to well of 10th column. Wells of 11th and 12th column served as a positive and negative control respectively. Finally, 100 μl of inoculum (0.5 McFarland equal bacterial suspension was 100 times diluted in culture broth) was added to all the wells. Plates were incubated at 37° C. for 18-24 hrs. After incubation, MIC of each test compound was determined by observing the lowest concentration of test compound that has no visual growth compared to growth control. Minimum inhibitory concentration of besifloxacin, ampicillin and cefotaxime against gram negative bacterial strains were shown in Table 1.

Enterobacter sp. 1 = assay: as above; format: cell-based; details: read-out: Minimum Inhibitory Concentration
Method: as §3

Enterobacter sp. 2 = assay: as above; format: cell-based; details: read-out: Minimum Inhibitory Concentration
Method: as §3

Enterobacter sp. 523 = assay: as above; format: cell-based; details: read-out: Minimum Inhibitory Concentration
Method: as §3

Enterobacter sp. 532 = assay: as above; format: cell-based; details: read-out: Minimum Inhibitory Concentration
Method: as §3

Escherichia coli 591 = assay: as above; format: cell-based; details: read-out: Minimum Inhibitory Concentration
Method: as §3

Escherichia coli 592 = assay: as above; format: cell-based; details: read-out: Minimum Inhibitory Concentration
Method: as §3

Klebsiella sp. 498 = assay: as above; format: cell-based; details: read-out: Minimum Inhibitory Concentration
Method: as §3

Klebsiella sp. 512 = assay: as above; format: cell-based; details: read-out: Minimum Inhibitory Concentration
Method: as §3

Pseudomonas sp. 537 = assay: as above; format: cell-based; details: read-out: Minimum Inhibitory Concentration
Method: as §3

Pseudomonas sp. 556 = assay: as above; format: cell-based; details: read-out: Minimum Inhibitory Concentration
Method: as §3

MIC (Acinetobacter sp. 488) [µg/mL] | MIC (Enterobacter sp. 1) [µg/mL] | MIC (Enterobacter sp. 2) [µg/mL] | MIC (Enterobacter sp. 523) [µg/mL] | MIC (Enterobacter sp. 532) [µg/mL] | MIC (Escherichia coli 591) [µg/mL] | MIC (Escherichia coli 592) [µg/mL] | MIC (Klebsiella sp. 498) [µg/mL] | MIC (Klebsiella sp. 512) [µg/mL] | MIC (Pseudomonas sp. 537) [µg/mL] | MIC (Pseudomonas sp. 556) [µg/mL] | SMILES | also measured
 |  |  |  |  |  |  |  |  |  |  | CN(C)[C@@H]1C(O)=C(C(N)=O)C(=O)[C@@]2(O)C(O)=C3C(=O)c4c(O)cccc4[C@@](C)(O)[C@H]3C[C@@H]12 [Tetracycline] | MIC (P. acnes V3-1): 0.3 µg/mL (≈ 0.675 µM); MIC [1]: 0.06 µg/mL (≈ 0.135 µM); MIC [2]: > 4 µg/mL; MIC [3]: 2 µg/mL (≈ 4.5 µM); MIC (K. pneumoniae S6-1): > 4 µg/mL; MIC (Kocuria sp. S18-1): 1 µg/mL (≈ 2.25 µM); Minimum Inhibitory Concentration (Microbacterium sp. S20-2): 2 µg/mL; MIC (P. avidum S3-1): 1 µg/mL (≈ 2.25 µM); MIC (S. epidermidis S1-1): > 4 µg/mL; MIC [4]: 0.25 µg/mL (≈ 0.563 µM); Minimum Inhibitory Concentration (Blastococcus sp. S21A-2): 0.5 µg/mL
> 128 | 128 (≈ 281 µM) | 0.5 (≈ 1.1 µM) | 128 (≈ 281 µM) | 64 (≈ 141 µM) | < 0.25 | 128 (≈ 281 µM) | 64 to 128 (≈ 141 to 281 µM) | < 0.25 | 16 (≈ 35.1 µM) | 4 (≈ 8.78 µM) | CO/N=C(\C(=O)N[C@@H]1C(=O)N2C(C(=O)O)=C(COC(C)=O)CS[C@H]12)c1csc(N)n1 [Cefotaxime] | 
> 128 | > 128 | 2 (≈ 5.72 µM) | > 128 | > 128 | 4 (≈ 11.4 µM) | > 128 | > 128 | 32 (≈ 91.6 µM) | > 128 | > 128 | CC1(C)S[C@@H]2[C@H](NC(=O)[C@H](N)c3ccccc3)C(=O)N2[C@H]1C(=O)O [Ampicillin] | 
